The results in this text go back to patent US20180000089A1, “NOVEL MICROBIOCIDES” (Syngenta Participations AG, priority 2015, published 2018).

Data set [1] concerns Sclerotinia sclerotiorum. Kind of data set: Sclerotinia sclerotiorum / liquid culture (cottony rot). As to conditions: PDB, 24° C., inhibition of growth determined visually 3-4 days after application, read-out: disease control. The data set is classed as cell-based. The procedure:
17 Sclerotinia sclerotiorum/liquid culture (cottony rot): Mycelia fragments of a newly grown liquid culture of the fungus were directly mixed into nutrient broth (PDB potato dextrose broth). After placing a (DMSO) solution of the test compounds into a microtiter plate (96-well format) the nutrient broth containing the fungal material was added. The test plates were incubated at 24° C. and the inhibition of growth was determined visually 3-4 days after application.

The test system of data set [2] is Mycosphaerella graminicola (Septoria tritici). Kind of data set: Mycosphaerella graminicola (Septoria tritici) / liquid culture (Septoria blotch). The data set is classed as cell-based. The settings on record: Zymoseptoria tritici, PDB, 24° C., inhibition of growth determined photometrically 4-5 days after application, read-out: disease control. On the procedure:
12 Mycosphaerella graminicola (Septoria tritici)/Liquid Culture (Septoria Blotch): Conidia of the fungus from cryogenic storage were directly mixed into nutrient broth (PDB potato dextrose broth). After placing a DMSO solution of test compound into a 96-well microtiter plate at an application rate of 200 ppm, the nutrient broth containing the fungal spores was added. The test plates were incubated at 24° C. and the inhibition of growth was determined photometrically 4-5 days after application.

Data set [3] concerns Botryotinia fuckeliana (Botrytis cinerea). Kind of data set: Botryotinia fuckeliana (Botrytis cinerea) / liquid culture (gray mould). The data set is classed as cell-based. As to conditions: Vogels broth, 24° C., inhibition of growth determined photometrically 3-4 days after application, read-out: disease control. On the procedure: 9 Botryotinia fuckeliana (Botrytis cinerea)/liquid culture (Gray mould): Conidia of the fungus from cryogenic storage were directly mixed into nutrient broth (Vogels broth). After placing a DMSO solution of test compound into a 96-well microtiter plate at an application rate of 200 ppm, the nutrient broth containing the fungal spores was added. The test plates were incubated at 24° C. and the inhibition of growth was determined photometrically 3-4 days after application.

The subject of data set [4] is Plasmopara viticola. The data set is described as follows: whole plant or invertebrate. The data set is classed as in vivo. As to conditions: foliar, read-out: disease control.
The subject of data set [5] is Thanatephorus cucumeris (Rhizoctonia solani). The data set is described as follows: Thanatephorus cucumeris (Rhizoctonia solani) / liquid culture (foot rot, damping-off). The data set is classed as cell-based. As to conditions: PDB, 24° C., inhibition of growth determined photometrically 3-4 days after application, read-out: disease control. The procedure: 16 Thanatephorus cucumeris (Rhizoctonia solani)/liquid culture (foot rot, damping-off): Mycelia fragments of a newly grown liquid culture of the fungus were directly mixed into nutrient broth (PDB potato dextrose broth). After placing a DMSO solution of the test compounds into a 96-well microtiter plate at an application rate of 200 ppm, the nutrient broth containing the fungal material was added. The test plates were incubated at 24° C. and the inhibition of growth was determined photometrically 3-4 days after application.

Data set [6] relates to Monographella nivalis (Microdochium nivale). The data set is described as follows: Monographella nivalis (Microdochium nivale) / liquid culture (foot rot cereals). As to conditions: PDB, 24° C., inhibition of growth determined photometrically 4-5 days after application, read-out: disease control. The data set is classed as cell-based. On the procedure:
14 Monographella nivalis (Microdochium nivale)/liquid culture (foot rot cereals): Conidia of the fungus from cryogenic storage were directly mixed into nutrient broth (PDB potato dextrose broth). After placing a DMSO solution of test compound into a 96-well microtiter plate at an application rate of 200 ppm, the nutrient broth containing the fungal spores was added. The test plates were incubated at 24° C. and the inhibition of growth was determined photometrically 4-5 days after application.

Data set [7] deals with Mycosphaerella arachidis (Cercospora arachidicola). The data set is described as follows: Mycosphaerella arachidis (Cercospora arachidicola) / liquid culture (early leaf spot). As to conditions: PDB, 24° C., inhibition of growth determined photometrically 4-5 days after application, read-out: disease control. The data set is classed as cell-based. The procedure: 11 Mycosphaerella arachidis (Cercospora arachidicola)/Liquid Culture (Early Leaf Spot): Conidia of the fungus from cryogenic storage were directly mixed into nutrient broth (PDB potato dextrose broth). After placing a DMSO solution of test compound into a 96-well microtiter plate at an application rate of 200 ppm, the nutrient broth containing the fungal spores was added. The test plates were incubated at 24° C. and the inhibition of growth was determined photometrically 4-5 days after application.

Data set [8] has as its system Pythium ultimum. Kind of data set: Pythium ultimum / liquid culture (seedling damping off). The data set is classed as cell-based. The settings on record: Globisporangium ultimum, potato dextrose broth, 24° C., inhibition of growth determined photometrically 2-3 days after application, read-out: disease control. The procedure: 8 Pythium ultimum/Liquid Culture (Seedling Damping Off) Mycelia fragments and oospores of a newly grown liquid culture of the fungus were directly mixed into nutrient broth (potato dextrose broth). After placing a DMSO solution of test compound into a 96-well format microtiter plate at an application rate of 200 ppm, the nutrient broth containing the fungal mycelia/spore mixture was added. The test plates were incubated at 24° C. and the inhibition of growth was determined photometrically 2-3 days after application.

For data set [9], the system named is Fusarium culmorum. Kind of data set: microbe, parasite or virus in culture. The data set is classed as cell-based. The settings on record: read-out: disease control.
Data set [10] has as its system Glomerella lagenarium (Colletotrichum Lagenarium). Kind of data set: Glomerella lagenarium (Colletotrichum lagenarium) / liquid culture (anthracnose). The data set is classed as cell-based. The settings on record: Colletotrichum orbiculare, PDB, 24° C., inhibition of growth measured photometrically 3-4 days after application, read-out: disease control. The procedure:
10 Glomerella lagenarium (Colletotrichum Lagenarium)/Liquid Culture (Anthracnose): Conidia of the fungus from cryogenic storage were directly mixed into nutrient broth (PDB potato dextrose broth). After placing a DMSO solution of test compound into a 96-well microtiter plate at an application rate of 200 ppm, the nutrient broth containing the fungal spores was added. The test plates were incubated at 24° C. and the inhibition of growth was measured photometrically 3-4 days after application.

The subject of data set [11] is Gaeumannomyces Graminis. The data set is described as follows: Gaeumannomyces graminis / liquid culture (take-all of cereals). The data set is classed as cell-based. As to conditions: PDB, 24° C., inhibition of growth determined photometrically 4-5 days after application, read-out: disease control. On the procedure:
13 Gaeumannomyces Graminis/Liquid Culture (Take-all of Cereals): Mycelial fragments of the fungus from cryogenic storage were directly mixed into nutrient broth (PDB potato dextrose broth). […] The test plates were incubated at 24° C. and the inhibition of growth was determined photometrically 4-5 days after application.

Broadly, the melting point is the temperature, or range, at which the solid turns liquid.

The compound `OB1OCc2cc(Cl)c(-c3ccccc3)cc21` [Compound 3, 5-chloro-1-hydroxy-6-phenyl-3H-2,1-benzoxaborole] yielded a melting point of 135 to 145 °C. Moreover, the inhibition of growth at 200 ppm in data set [1] was ≥ 80%. Also, the inhibition of growth at 200 ppm in [2] is ≥ 80%. Also, the inhibition of growth at 200 ppm in data set [3] was ≥ 80%. In addition, in data set [4], the pest or weed control at 200 ppm was ≥ 80%. Also, the inhibition of growth at 200 ppm in data set [5] was ≥ 80%. The inhibition of growth at 200 ppm in data set [6] was ≥ 80%. Besides, in [7], the inhibition of growth at 200 ppm was ≥ 80%. For the same compound, the inhibition of growth at 200 ppm in data set [8] is ≥ 80%. Further, in data set [9], the inhibition of growth at 200 ppm was ≥ 80%. The inhibition of growth at 200 ppm in [10] is ≥ 80%. In data set [11], the inhibition of growth at 200 ppm was ≥ 80%.
For the compound `COc1ccc(Cl)cc1-c1cc2c(cc1Cl)COB2O` [Compound 31], the inhibition of growth at 200 ppm in data set [1], in [2], in data set [3], in data set [5], in data set [6] and in data set [7] was ≥ 80% each time. The inhibition of growth at 200 ppm in data set [8], in data set [9] and in data set [10] was ≥ 80% throughout.
On to `Cc1ccccc1-c1cc2c(cc1Cl)COB2O` [Compound 4], for which the inhibition of growth at 200 ppm in data set [2], in [5], in data set [8] and in data set [10] was ≥ 80% each time. In data set [4], the pest or weed control at 200 ppm is ≥ 80%.
`OB1OCc2cc(F)c(-c3ccc(Cl)cc3Cl)cc21` [Compound 28]: the inhibition of growth at 200 ppm in [1], in data set [2], in data set [3], in data set [5], in data set [7] and in data set [11] was ≥ 80% in each case.
With `Cc1ccc(-c2cc3c(cc2Cl)COB3O)cc1` [Compound 6], the inhibition of growth at 200 ppm in data set [2], in data set [5], in data set [8], in [9] and in [10] was ≥ 80% throughout.
With `Cc1cccc(-c2cc3c(cc2Cl)COB3O)c1` [Compound 5], the inhibition of growth at 200 ppm in data set [2], in [5], in [8], in data set [9] and in [10] was ≥ 80% each time.
For the compound `COc1ccc(-c2cc3c(cc2Cl)COB3O)cc1` [Compound 8, 5-chloro-1-hydroxy-6-(4-methoxyphenyl)-3H-2,1-benzoxaborole], the melting point was 105 to 115 °C. The inhibition of growth at 200 ppm in data set [2] is ≥ 80%. In data set [5], the inhibition of growth at 200 ppm was ≥ 80%. Also, in [6], the inhibition of growth at 200 ppm is ≥ 80%. For the same compound, the inhibition of growth at 200 ppm in [8] was ≥ 80%. The inhibition of growth at 200 ppm in [10] is ≥ 80%. Moreover, the inhibition of growth at 200 ppm in [11] is ≥ 80%.
`COc1ccccc1-c1cc2c(cc1Cl)COB2O` [Compound 7, 5-chloro-1-hydroxy-6-(2-methoxyphenyl)-3H-2,1-benzoxaborole] came in with a melting point of 90 to 105 °C. Also, in [2], the inhibition of growth at 200 ppm is ≥ 80%. In addition, in data set [4], the pest or weed control at 200 ppm is ≥ 80%. Moreover, the inhibition of growth at 200 ppm in data set [5] is ≥ 80%. Further, the inhibition of growth at 200 ppm in data set [8] was ≥ 80%. Moreover, the inhibition of growth at 200 ppm in data set [9] is ≥ 80%. Moreover, the inhibition of growth at 200 ppm in [10] was ≥ 80%.
